For the experiment, the target named is T1, GP IIb IIIa (Homo sapiens, UniProt P05106+P08514).
T1 construct: from tissue; host or cells: outdated human platelets
The experiment is described as follows: Fibrinogen-GP IIb IIIa Receptor ELISA Binding Assay (Fg/IIbIIIa). How it is done: Briefly, microtiter plates are coated with fibrinogen (10 mg/ml) and then blocked with TACTS buffer containing 0.5% bovine serum albumin (BSA). […] After another wash a goat anti-mouse IgG conjugated to horseradish peroxidase is added. […] The reaction is stopped with 1N sulfuric acid and the absorbance at 492 nm is recorded. […] Outdated human platelets are washed 3 times with 10 mM tris-HCl, 150 mM NaCl (TBS), 1 mM EDTA, pH 7.5, and centrifuged at 2000×g to pellet cells. […] The supernatant fraction is collected and the supernatant is loaded onto a concanavalin-A column, previously equilibrated in TBS, 1 mM Ca2 Cl2, 0.1% Triton, 0.05% NaN3 and eluted with 0.2M a-methylmannoside. Fractions are pooled and loaded onto a heparin-agarose column. The flowthrough is collected and concentrated on an Amicon YM 30 filter to a volume of approximately 5-10 ml. The concentrate is then applied to an S-300 column (500 ml) and 6 ml fractions are collected. The GP IIb IIIa containing fractions are collected, pooled, and stored at -80° C. […] The precipitate is spun down in appropriate size bottles at 2000×g. The supernatant is decanted and the precipitate resuspended in 150 mM NaCl (approximately 50% of the original volume). […] The suspension is spun down and the precipitate is resuspended in Tris-saline in a minimal volume (approximately 5% of the original volume). Any remaining insoluble material is spun down at 2000 rpm in a Sorval type centrifuge and the fibrinogen supernatant is decanted and dialyzed overnight at 4° C. against Tris-saline. Characterization of the fibrinogen is by the Bradford protein assay, SDS-PAGE, and/or Western blotting using well known standard procedures. Briefly, 96 well plates are coated (Type Nunc 1 MaxisorpTM) with 10 mg/ml purified fibrinogen ([…]), and allowed to stand overnight at 4° C. […] The plates are again washed three times with PBS/Tween and then […] of sample in TNCNT is added. The mixture is incubated for 15 minutes at room temperature on a plate shaker. […] Fifty ml of this diluted GP IIb IIIa is then added to each well and incubated on a plate shaker at room temperature. After one hour, the plates are washed four times with PBS/Tween and 100 ml of a polyclonal or monoclonal antibody specific for GP IIIa such as AP3 (1 mg/ml) (See e.g. […] After a one hour incubation at room temperature on a plate shaker, the samples are washed 4 times with PBS/Tween. […] The color develops within about 3 to 20 minutes and the reaction is stopped with 100 ml 1M H2 SO4. The optical density at 492 nm vs 405 nm is recorded and IC50 values are determined.
(In general: ELISA stands for enzyme-linked immunosorbent assay.)

Where [1] appears, read: Example 29, Cmpd # 1-105, read-out: IC50 Fg/IIbI.
Setting [2] is: Examples 29 and 30, Cmpd # tables, read-out: IC50 (μM) Fg/IIbIIIa.

Counter-ions that a name gives are not always drawn. Like-named read-outs stand apart in the source and are kept apart here.

T1 sequence (P08514 32-887 limits assumed): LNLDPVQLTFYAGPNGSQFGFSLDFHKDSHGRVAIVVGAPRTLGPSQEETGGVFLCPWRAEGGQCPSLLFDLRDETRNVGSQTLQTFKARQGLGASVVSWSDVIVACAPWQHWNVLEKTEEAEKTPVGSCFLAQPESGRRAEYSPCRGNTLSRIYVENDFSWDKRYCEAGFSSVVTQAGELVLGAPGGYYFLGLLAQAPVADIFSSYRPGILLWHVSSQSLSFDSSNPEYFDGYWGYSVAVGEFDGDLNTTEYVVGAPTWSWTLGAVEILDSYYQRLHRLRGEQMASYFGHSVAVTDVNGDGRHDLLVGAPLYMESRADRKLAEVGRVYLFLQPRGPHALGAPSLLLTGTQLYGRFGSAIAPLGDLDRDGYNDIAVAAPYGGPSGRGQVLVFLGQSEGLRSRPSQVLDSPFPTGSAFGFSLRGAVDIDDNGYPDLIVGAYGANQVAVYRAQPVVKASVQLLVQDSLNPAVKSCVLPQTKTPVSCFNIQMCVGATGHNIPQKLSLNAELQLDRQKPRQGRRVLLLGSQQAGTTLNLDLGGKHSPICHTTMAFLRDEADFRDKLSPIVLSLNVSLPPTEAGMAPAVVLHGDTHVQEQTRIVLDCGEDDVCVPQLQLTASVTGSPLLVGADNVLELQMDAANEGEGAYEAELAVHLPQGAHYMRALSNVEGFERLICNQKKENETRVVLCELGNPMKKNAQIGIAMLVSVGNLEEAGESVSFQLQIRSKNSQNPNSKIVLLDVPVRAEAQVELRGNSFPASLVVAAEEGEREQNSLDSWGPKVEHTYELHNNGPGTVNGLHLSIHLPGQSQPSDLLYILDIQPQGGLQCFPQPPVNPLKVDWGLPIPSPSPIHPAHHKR
T1 sequence (P08514 891-1039 partner limits assumed): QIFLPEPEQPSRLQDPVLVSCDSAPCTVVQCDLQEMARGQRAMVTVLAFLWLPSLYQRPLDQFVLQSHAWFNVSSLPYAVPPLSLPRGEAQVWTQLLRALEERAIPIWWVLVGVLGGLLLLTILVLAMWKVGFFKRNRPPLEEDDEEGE
T1 sequence (P05106 27-788): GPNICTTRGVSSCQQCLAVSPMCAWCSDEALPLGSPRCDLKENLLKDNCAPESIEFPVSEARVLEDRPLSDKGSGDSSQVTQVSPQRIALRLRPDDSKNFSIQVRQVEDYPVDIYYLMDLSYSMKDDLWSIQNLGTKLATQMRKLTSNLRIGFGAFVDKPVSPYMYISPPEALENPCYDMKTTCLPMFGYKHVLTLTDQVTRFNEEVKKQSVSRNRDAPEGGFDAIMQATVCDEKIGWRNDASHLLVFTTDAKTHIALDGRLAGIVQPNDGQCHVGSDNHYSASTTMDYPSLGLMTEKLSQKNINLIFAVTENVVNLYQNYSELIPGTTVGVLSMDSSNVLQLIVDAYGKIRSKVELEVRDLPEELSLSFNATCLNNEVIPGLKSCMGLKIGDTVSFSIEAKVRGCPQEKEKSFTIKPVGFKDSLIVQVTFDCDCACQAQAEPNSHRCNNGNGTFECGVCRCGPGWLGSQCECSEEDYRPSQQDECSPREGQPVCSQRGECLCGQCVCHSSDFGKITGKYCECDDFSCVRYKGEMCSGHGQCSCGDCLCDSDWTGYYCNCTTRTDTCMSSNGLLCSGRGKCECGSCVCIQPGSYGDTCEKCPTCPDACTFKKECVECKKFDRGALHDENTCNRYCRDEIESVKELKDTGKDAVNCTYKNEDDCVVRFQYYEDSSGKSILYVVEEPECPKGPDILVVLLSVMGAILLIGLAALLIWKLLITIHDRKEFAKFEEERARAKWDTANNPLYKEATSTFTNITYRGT

Regarding `N=C(N)NCCCCCCc1ccc2c(c1)C(=O)N(CCC(=O)O)CC(=O)N2Cc1cccc(Oc2ccccc2)c1` [Cmpd 91, 1-(m-phenoxybenzyl)-4-(2-carboxyethyl)-7-(6-guanidinohexyl)-3,4-dihydro-1H-1,4-benzodiazepine-2,5-dione trifluoroacetate], the IC50 under setting [1] turned out to be 0.009 µM.
On the same count and under the same terms, then `N=C(N)NCCCCCc1ccc2c(c1)C(=O)N(CCC(=O)O)CC(=O)N2Cc1cccc(Oc2ccccc2)c1` [Cmpd 92, 1-(m-phenoxybenzyl)-4-(2-carboxyethyl)-7-(5-guanidinopentyl)-3,4-dihydro-1H-1,4-benzodiazepine-2,5-dione trifluoroacetate], with 0.011 µM; and `N=C(N)NCCCCCc1ccc2c(c1)C(=O)N(CCC(=O)O)CC(=O)N2Cc1ccc(C(F)(F)F)cc1` [Cmpd 93, 1-(p-trifluoromethylbenzyl)-4-(2-carboxyethyl)-7-(5-guanidinopentyl)-3,4-dihydro-1H-1,4-benzodiazepine-2,5-dione trifluoroacetate], with 0.014 µM.
Still for that read-out and setting: with `NCCCCCCc1ccc2c(c1)C(=O)N(CCC(=O)O)CC(=O)N2Cc1cccc(Oc2ccccc2)c1` [Cmpd 94, 1-(m-phenoxybenzyl)-4-(2-carboxyethyl)-7-(6-aminohexyl)-3,4-dihydro-1H-1,4-benzodiazepine-2,5-dione trifluoroacetate] the figure was 0.009 µM; with `NCCCCCc1ccc2c(c1)C(=O)N(CCC(=O)O)CC(=O)N2Cc1cccc(Oc2ccccc2)c1` [Cmpd 95, 1-(m-phenoxybenzyl)-4-(2-carboxyethyl)-7-(5-aminopentyl)-3,4-dihydro-1H-1,4-benzodiazepine-2,5-dione trifluoroacetate], 0.108 µM; with `NCCCCCc1ccc2c(c1)C(=O)N(CCC(=O)O)CC(=O)N2Cc1ccc(C(F)(F)F)cc1` [Cmpd 96, 1-(p-trifluoromethylbenzyl)-4-(2-carboxyethyl)-7-(5-aminopentyl)-3,4-dihydro-1H-1,4-benzodiazepine-2,5-dione trifluoroacetate], 0.186 µM.
Still for that read-out and setting: then `NCCCC#Cc1ccc2c(c1)C(=O)N(CCC(=O)O)CC(=O)N2Cc1ccc(F)cc1F` [Cmpd 97], with 0.13 µM; and `N=C(N)NCCCC#Cc1ccc2c(c1)C(=O)N(CCC(=O)O)CC(=O)N2Cc1ccc(F)cc1F` [Cmpd 98], with 0.024 µM; and `NCCCCC#Cc1ccc2c(c1)C(=O)N(CCC(=O)O)CC(=O)N2Cc1ccc(F)cc1F` [Cmpd 99], with 0.027 µM.
`N=C(N)NCCCCC#Cc1ccc2c(c1)C(=O)N(CCC(=O)O)CC(=O)N2Cc1ccc(F)cc1F` [Cmpd 100]: under setting [1], the IC50 worked out at 0.025 µM.
Same read-out and setting: then `NCCCCCc1ccc2c(c1)C(=O)N(CCC(=O)O)CC(=O)N2Cc1ccc(F)cc1F` [Cmpd 101], with 0.2 µM; and `N=C(N)NCCCCCc1ccc2c(c1)C(=O)N(CCC(=O)O)CC(=O)N2Cc1ccc(F)cc1F` [Cmpd 102], with 0.016 µM.
`NCCCCCCc1ccc2c(c1)C(=O)N(CCC(=O)O)CC(=O)N2Cc1ccc(F)cc1F` [Cmpd 103, 1-(2,4-difluorophenyl)methyl-4-(2-carboxyethyl)-7-(6-aminohexyl)-3,4-dihydro-1H-1,4-benzodiazapine-2,5-dione]: under setting [1], the IC50 turned out to be 0.021 µM.
The same measure, in the same setting: with `N=C(N)NCCCCCCc1ccc2c(c1)C(=O)N(CCC(=O)O)CC(=O)N2Cc1ccc(F)cc1F` [Cmpd 104] the figure was 0.038 µM.
`CC(=O)NCCCCCCc1ccc2c(c1)C(=O)N(CCC(=O)O)CC(=O)N2Cc1ccc(Cl)cc1` [Cmpd 105]: under setting [1], the IC50 was 8.5 µM.
Consider `NCCCC#Cc1ccc2c(c1)C(=O)N(CCC(=O)O)CC(=O)N2Cc1cccc(NC(=O)CN)c1` [Cmpd 106], for which the IC50 under setting [2] amounted to 0.068 µM.
On the same count and under the same terms, with `NCCCCCCc1ccc2c(c1)C(=O)N(CCC(=O)O)CC(=O)N2Cc1ccc(NC(=O)CCN)cc1` [Cmpd 118] the figure was 0.019 µM; with `N=C(N)NCCCCCCc1ccc2c(c1)C(=O)N(CCC(=O)O)CC(=O)N2Cc1ccc(NC(=O)CCNC(=N)N)cc1` [Cmpd 119], 0.013 µM; with `NCCCCCCc1ccc2c(c1)C(=O)N(CCC(=O)O)CC(=O)N2Cc1cccc(CCCCN)c1` [Cmpd 120], 0.024 µM.
On the same count and under the same terms, with `N=C(N)NCCCCCCc1ccc2c(c1)C(=O)N(CCC(=O)O)CC(=O)N2Cc1cccc(CCCCNC(=N)N)c1` [Cmpd 121] the figure was 0.02 µM; with `NCCCCCCc1ccc2c(c1)C(=O)N(CCC(=O)O)CC(=O)N2CCCCCN` [Cmpd 125], 0.064 µM; with `N=C(N)NCCCCCCc1ccc2c(c1)C(=O)N(CCC(=O)O)CC(=O)N2CCCCCNC(=N)N` [Cmpd 126], 0.04 µM.
Still for that read-out and setting: with `NCCCCCCc1ccc2c(c1)C(=O)N(CCC(=O)O)CC(=O)N2Cc1ccc(N)cc1` [Cmpd 128] the figure was 0.024 µM.
Turning to `N=C(N)NCCCCCc1ccc2c(c1)C(=O)N(CCC(=O)O)CC(=O)N2CCCCC(=O)O` [Cmpd 131], the IC50 under setting [2] worked out at 0.014 µM.
Regarding `NCCCCCc1ccc2c(c1)C(=O)N(CCC(=O)O)CC(=O)N2CCCCC(=O)O` [Cmpd 132], the IC50 under setting [2] was determined as 0.931 µM.
On the same count and under the same terms, then `N=C(N)NCCCCCc1ccc2c(c1)C(=O)N(CCC(=O)O)CC(=O)N2Cc1ccc(C(=O)O)cc1` [Cmpd 133], with 0.016 µM; and `N=C(N)NCCCCCCc1ccc2c(c1)C(=O)N(CCC(=O)O)CC(=O)N2Cc1ccc(C(=O)O)cc1` [Cmpd 134], with 0.019 µM; and `NCCCCCCc1ccc2c(c1)C(=O)N(CCC(=O)O)CC(=O)N2Cc1ccc(C(=O)O)cc1` [Cmpd 135, 1-(4-carboxyphenyl)methyl-4-(2-carboxyethyl)-7-(6-aminohexyl)-3,4-dihydro-1H-1,4-benzodiazapine-2,5-dione], with 0.008 µM.
On the same count and under the same terms, with `NCCCCCc1ccc2c(c1)C(=O)N(CCC(=O)O)CC(=O)N2Cc1ccc(C(=O)O)cc1` [Cmpd 136] the figure was 0.176 µM; with `CN1C(=O)CN(CCC(=O)O)C(=O)c2cc3cc(C#CCN)ccc3cc21` [Cmpd 137, 1-methyl-4-(2-carboxyethyl)-8-(3-amino-1-propynyl)-3,4-dihydro 1H-1,4-napthodiazepine-2,4-dione trifluoracetate], 0.351 µM.
On the same count and under the same terms, with `CN1C(=O)CN(CCC(=O)O)C(=O)c2cc3cc(C#CCNC(=N)N)ccc3cc21` [Cmpd 138, 1-Methyl-4-(carboxyethyl)-8-(3-guanidino-1-propynyl)-3,4-dihydro-1H-1,4-naphthodiazepine-2,5-dione] the figure was 0.009 µM; with `CN1C(=O)CN(CCC(=O)O)C(=O)c2cc3cc(CCCCN)ccc3cc21` [Cmpd 139], 0.153 µM.
Take `CN1C(=O)CN(CCC(=O)O)C(=O)c2cc3cc(CCCCNC(=N)N)ccc3cc21` [Cmpd 140]: the IC50 under setting [2] was 0.069 µM.
Consider `CN1C(=O)CN(CCC(=O)O)C(=O)c2cc3c(cc21)CCC(CCCN)C3` (stereo not drawn) [Cmpd 141, 1-Methyl-4-(carboxyethyl)-8-(3-amino-1-propyl)-3,4,7,8,9,10-hexahydrohydro-1H-1,4-naphthodiazepine-2,5-dione], for which the IC50 under setting [2] is 1.8 µM.
For the molecule `CN1C(=O)CN(CCC(=O)O)C(=O)c2cc3c(cc21)CCC(CCCNC(=N)N)C3` (stereo not drawn) [Cmpd 142], under setting [2], the IC50 was found to be 0.068 µM.
Consider `CN1C(=O)CN(CCC(=O)O)C(=O)c2cc3c(cc21)CCC(CCCCN)C3` (stereo not drawn) [Cmpd 143], for which the IC50 under setting [2] was found to be 0.048 µM.
On the same count and under the same terms, with `NCCCC#Cc1ccc2c(c1)C(=O)N(CCC(=O)O)CCO2` [Cmpd 144] the figure was 12 µM; with `N=C(N)NCCCC#Cc1ccc2c(c1)C(=O)N(CCC(=O)O)CCO2` [Cmpd 145], 4 µM; with `NCCCCCc1ccc2c(c1)C(=O)N(CCC(=O)O)CCO2` [Cmpd 146], 80 µM.
